Test results: patent publication US12258424B2, “Polypeptides and compositions comprising the same” (priority 2020, dated 2025)
Positions of bridges follow the written chain, without caps; N, C: chain ends. Residues, ends and D or L forms follow the SMILES beside them.

How the values were obtained:
mPD-L1 = mPD-L1 (Mus musculus, UniProt Q9EP73); assay: PD-1/PD-L1 blocking ELISA, mouse proteins; assay type: binding; design: purchased Acro Biosystems PD1-M5220 (PD-L1)
Protocol: (§1) Blocking efficiency at 10 μM/IC50 against human and mouse PD1/PD-L1 (ELISA). […] 100 ng of recombinant human PD-L1 protein was coated in 96-well plates at 4° C. for 16 h with shaking over an orbital shaker. Unbound protein was removed by washing twice with PBS (pH 7.2-7.4), 2% BSA was added for 1.5 h at 37° C. to block the plate. Specific concentrations of the peptides were dispensed into the appropriate wells and incubated for 2 h at 37° C. […] This was followed by the addition of streptavidin-HRP and chromogenic substrate (R & D systems). The color reaction was terminated with 2N H2SO4, absorbance was recorded at OD450 and referenced to OD540.

hPD-L1 [1] = molecular target: T1, hPD-L1 (Homo sapiens, UniProt Q9NZQ7); assay: Competitive SPR blocking of PD-L1 binding to immobilized PD-1; design: purchased Acro Biosystems EP-101
Protocol: % Blocking efficiency at 10 μM (Competitive SPR)/IC50 (competitive SPR) hPD-L1. BI-4500A SPR and a CM-5 sensor chip pre-functionalized with streptavidin (Biosensing Instrument Inc., Tempe, Ariz.) were employed for the SPR analysis. […] Different concentrations of each peptide were incubated with human PD-L1 (AcroBiosystems, cat #EP-101) prior to injection. Human PD-L1 alone was also injected to serve as a control. […] Data was analyzed with SPR Data Analysis Version 3.8.4 (Biosensing Instrument Inc., Tempe, AZ).

[2] = Cell viability of DU145 cells (CellTiter-Glo); assay type: cell-based; conditions: human, read-out: % cell viability after incubation with 50 μM peptide
Protocol: % cell viability after incubation with 50 μM peptide. White 96-well plates with clear bottom (Corning, RFE 3610) were seeded with DU145 cells at a density of 1×10^4 cells/well and incubated in a humidified atmosphere at 37° C. with a supply of 5% CO2. After 12 h, various peptide concentrations were added to the cells and incubated for 48 h. CellTiter-Glo kit (Promega, WI) was employed in the cell viability analysis by following the manufacturer's instructions.

[3] = Proteolytic stability in 50% human serum (LC-MS); assay type: in vitro ADME
Protocol: Half-life in 50% human serum. Proteolytic stability of the peptides was investigated using LC-MS. Solutions of the anti-PD-L1 peptides were incubated with 50% human serum at […], aliquots were taken at specific time points for processing and subsequent LC-MS analysis.

hPD-L1 [4] = molecular target: T1, hPD-L1; assay: PD-1/PD-L1 inhibitor screening ELISA, human proteins; assay type: binding; design: purchased Acro Biosystems EP-101
Protocol: as §1

PD1/PD-L1 = PD1/PD-L1 (Homo sapiens, UniProt Q9NZQ7); assay: IC50 and blocking efficiency against PD1/PD-L1 (Table 5); assay type: binding
Protocol: as §1

IL-6 = conditions: cancer patients, Herbst et al. 2014; cited from earlier work

T1 sequence (Q9NZQ7 19-238 limits assumed): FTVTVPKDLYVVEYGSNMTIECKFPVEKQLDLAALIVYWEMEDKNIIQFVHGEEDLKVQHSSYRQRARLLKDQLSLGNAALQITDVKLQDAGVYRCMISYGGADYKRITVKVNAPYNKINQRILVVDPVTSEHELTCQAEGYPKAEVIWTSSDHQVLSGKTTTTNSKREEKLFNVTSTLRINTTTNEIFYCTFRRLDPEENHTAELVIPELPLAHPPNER
PD1/PD-L1, sequence (Q9NZQ7 19-238 limits assumed): as above
mPD-L1, sequence (Q9EP73 19-238 limits assumed): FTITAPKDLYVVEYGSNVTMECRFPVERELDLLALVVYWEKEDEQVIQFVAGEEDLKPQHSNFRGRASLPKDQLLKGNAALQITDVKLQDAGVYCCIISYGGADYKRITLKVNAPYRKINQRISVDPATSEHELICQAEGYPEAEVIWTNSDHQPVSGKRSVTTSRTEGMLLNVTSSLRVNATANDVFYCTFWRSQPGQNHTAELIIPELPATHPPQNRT

Row | % Blocking efficiency at 10 μM (ELISA) mPD-L1 (mPD-L1) | % Blocking efficiency at 10 μM (Competitive SPR) hPD-L1 (hPD-L1 [1]) | half-life [3] | % Blocking efficiency at 10 μM (ELISA) hPD-L1 (hPD-L1 [4]) | % Blocking efficiency at 10 μM (PD1/PD-L1) | Molecule | viability at 48 h, 50 µM [2] | Expression of IL-6 in the blood (IL-6)
1 | 89.3% | 86.8% | 38.1 min | 75.0% | 75% | CC(C)C[C@@H]1NC(=O)[C@H](CC(N)=O)NC(=O)[C@H](Cc2c[nH]c3ccccc23)NC(=O)[C@H]([C@@H](C)O)NC(=O)[C@H](Cc2ccc(O)cc2)NC(=O)[C@H](Cc2ccc(O)cc2)NC(=O)[C@H](CO)NC(=O)[C@H](CCCNC(=N)N)NC(=O)[C@H](Cc2c[nH]cn2)NC(=O)[C@@H](N)CSSC[C@@H](C(=O)O)NC(=O)[C@H](CC(N)=O)NC1=O [CLP2C14] (H-CHRSYYTWNLNC-OH; disulfide 1-12; N-terminus and C-terminus assumed) | ~100% | –
2 | 82.6% | 99.4% | 70.8 min | 85.9% | 78% | CC(C)C[C@H](NC(=O)[C@H](CC(N)=O)NC(=O)[C@H](Cc1c[nH]c2ccccc12)NC(=O)[C@@H]1CSSC[C@H](N)C(=O)N[C@@H](Cc2c[nH]cn2)C(=O)N[C@@H](CCCNC(=N)N)C(=O)N[C@@H](CO)C(=O)N[C@@H](Cc2ccc(O)cc2)C(=O)N[C@@H](Cc2ccc(O)cc2)C(=O)N1)C(=O)N[C@@H](CC(N)=O)C(=O)N[C@H](C(=O)O)[C@@H](C)O [CLP2C21] (H-CHRSYYCWNLNT-OH; disulfide 1-7; N-terminus and C-terminus assumed) | ~100% | –
3 | – | – | – | – | – | MPDL3280A: anti-PD-L1 antibody MPDL3280A (Herbst et al. 2014) | – | reduced
